SMILES strings stand for the structures. “And” between values parts separate entries of the source, which are not always exact repeats. Identical values can stand only once. Like-named read-outs stand apart in the source and are kept apart here. Marks after values point to notes of the source that are not given here.

Series [1] deals with T1, rat α1β2γ2 GABA(A) receptor (Rattus norvegicus, UniProt P18508+P62813+P63138).
T1 construct: expressed in transfected cells; host or cells: Xenopus laevis oocytes injected with cRNA (constructs a gift from Dr Erwin Sigel)
The experiment in a line: Two-electrode voltage-clamp of GABA(A) receptor expressed in Xenopus laevis oocytes. It is filed as cell-based. The method, then:
Oocytes from X. laevis, injected with foreign cDNA of the receptor of choice, are a commonly used tool for studying the activity of plasma membrane receptors. […] Isolation of oocytes from the frogs, defolliculation, culturing of the oocytes and injection of cRNA were performed as described previously. Oocytes were injected with 46 nl of RNA solution, with RNA coding for α1, β2 and γ2 subunits at a ratio of 10∶10∶50 nM [30]. The injected oocytes were incubated in modified Barth's solution [90 mM NaCl, 3 mM KCl, 0.82 mM MgSO4, 0.41 mM CaCl2, 0.34 mM Ca(NO3)2, 100 U/ml penicillin, 100 µg/ml streptomycin and 100 µg/ml kanamycin, 5 mM HEPES pH 7.6] at 18°C for approximately 36 h before the measurements to ensure the expression of a functional receptor.
Electrophysiological experiments were performed by the two-electrode voltage-clamp method. Measurements were done in ND96 medium containing 96 mM NaCl, 2 mM KCl, 1 mM MgCl2, 1.8 mM CaCl2 and 5 mM HEPES, pH 7.5, at a holding potential of −80 mV. Currents were measured using a custom-made two-electrode voltage clamp amplifier in combination with an XY recorder (90% response time, 0.1 s). The intracellular electrodes were filled with 3 M KCl (resistance of 0.5–1.5 MΩ). […] The perfusion solution (6 ml/min) was applied through a glass capillary with an inner diameter of 1.35 mm. […] The modulatory compounds (IVM and MOX) were first dissolved in DMSO at 20 mM and then diluted in ND96 to the final concentration.
Concentration ranges used were: IVM: 0.5 nM–10 µM; MOX: 1 nM–5 µM.
A washout period of 5 min between each agonist application was introduced, allowing receptors to fully recover from desensitization. The perfusion system was cleaned, after application of MLs, between each experiment by washing with 10% DMSO in ND96 to avoid contamination. Three or four different batches of oocytes were used to collect data for each analysis.
All experiments were conducted at least in triplicate. Differences in ML tissue concentrations were analyzed by one-way analysis of variance (ANOVA) with a Tukey post-test and are expressed as mean ± standard deviation (S.D.). […] Half-maximal concentrations (EC50), slope factors (Hill coefficients, nH) and maximal potentiation values for ML-induced activation of current were obtained using the Hill equation. Statistical analysis was performed using unpaired t-tests with Welch's correction to allow for differences in variances (GraphPad Instat, San Diego, CA, USA). Differences were considered statistically significant when p<0.05.
For orientation: Two-electrode voltage clamp holds a large cell at a set potential and records current.

Series [2] deals with P-gp-deficient dogs. Particulars: MDR1-deficient dogs, therapeutic dose 0.2 mg/kg; cited from earlier work.
Series [3] in a line: Acute toxicity (14-day survival, LD50) after subcutaneous administration. Particulars: mouse, in vivo, sc, Mdr1ab(−/−) mice, survival over 14 days, determined graphically. On the procedure: (§1) For acute toxicity experiments, Mdr1ab(−/−) mice (2–8 per dose rate) were injected subcutaneously with drug solutions at dose rates ranging from 0.1–1.75 mg/kg bw (0.11–2.0 µmol/kg bw) for IVM and 0.2–8.2 mg/kg bw (0.31–12.9 µmol/kg bw) for MOX. […] Mice were euthanized when severe tremors or ataxia were noted.

For series [4] the following is noted: no reference given; cited from earlier work.
Series [5] relates to acetylcholine receptors. Also noted: method as in PMID 17707779. The settings on record: cited from earlier work.
Series [6] deals with Mdr1ab(−/−) mice. The experiment in a line: Neurological symptoms after subcutaneous administration. It is filed as in vivo, mouse. Particulars: for Neurological signs: 0.46 µmol/kg SC. On the procedure: as §1
In series [7] the test system is purinergic (ATP) (cationic) receptors. Particulars: cited from earlier work.
The test system of series [8] is Mdr1a-deficient mice. Also noted: method as in PMID 7910522. Particulars: Mdr1a-deficient mice mutated on only the abcb1a gene; cited from earlier work.
The test system of series [9] is wild-type mice. Particulars: cited from earlier work.
Where [10] appears, read: potentiation of current evoked by 2 µM GABA (EC10).

T1 sequence (P62813 28-455): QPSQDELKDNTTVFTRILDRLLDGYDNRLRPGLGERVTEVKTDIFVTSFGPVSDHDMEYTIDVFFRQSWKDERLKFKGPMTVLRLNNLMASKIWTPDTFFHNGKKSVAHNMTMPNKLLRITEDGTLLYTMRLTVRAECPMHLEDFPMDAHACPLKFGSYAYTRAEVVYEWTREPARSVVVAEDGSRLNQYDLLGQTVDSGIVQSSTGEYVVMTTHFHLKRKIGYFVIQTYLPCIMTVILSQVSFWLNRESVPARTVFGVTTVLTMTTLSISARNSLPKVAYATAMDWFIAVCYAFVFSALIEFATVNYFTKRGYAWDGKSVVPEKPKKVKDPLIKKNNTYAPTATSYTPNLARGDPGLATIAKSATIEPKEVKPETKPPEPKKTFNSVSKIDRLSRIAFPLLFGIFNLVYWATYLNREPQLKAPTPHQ
T1 sequence (P63138 25-474 limits assumed): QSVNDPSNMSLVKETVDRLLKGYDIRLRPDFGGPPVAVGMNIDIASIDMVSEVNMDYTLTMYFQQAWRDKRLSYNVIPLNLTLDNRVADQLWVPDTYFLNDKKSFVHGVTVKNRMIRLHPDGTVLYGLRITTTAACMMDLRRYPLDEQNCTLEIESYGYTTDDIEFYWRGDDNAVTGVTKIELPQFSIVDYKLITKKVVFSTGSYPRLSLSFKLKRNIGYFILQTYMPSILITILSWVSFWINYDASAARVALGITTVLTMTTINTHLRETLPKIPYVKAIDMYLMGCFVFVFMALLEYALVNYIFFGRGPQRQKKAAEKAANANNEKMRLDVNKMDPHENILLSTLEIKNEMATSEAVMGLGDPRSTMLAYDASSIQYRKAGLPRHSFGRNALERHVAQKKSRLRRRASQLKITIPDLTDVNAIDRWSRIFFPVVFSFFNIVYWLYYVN
T1 sequence (P18508 39-466): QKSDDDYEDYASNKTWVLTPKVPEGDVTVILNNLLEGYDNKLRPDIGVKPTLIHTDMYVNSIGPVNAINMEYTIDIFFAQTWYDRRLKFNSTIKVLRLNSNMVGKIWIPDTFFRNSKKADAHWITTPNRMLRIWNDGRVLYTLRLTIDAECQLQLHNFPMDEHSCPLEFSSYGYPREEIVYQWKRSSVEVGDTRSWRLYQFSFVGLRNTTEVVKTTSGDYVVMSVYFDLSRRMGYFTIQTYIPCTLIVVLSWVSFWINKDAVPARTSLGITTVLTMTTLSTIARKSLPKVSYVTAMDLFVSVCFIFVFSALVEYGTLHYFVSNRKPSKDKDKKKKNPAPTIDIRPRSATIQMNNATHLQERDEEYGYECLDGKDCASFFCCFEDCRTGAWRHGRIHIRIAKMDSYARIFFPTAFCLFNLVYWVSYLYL

Broadly, the Hill slope is a measure of the steepness of the concentration-response curve. `NCCCC(=O)O` [GABA, γ-aminobutyric acid]: in series [1] (GABA alone, n = 12), the “EC10 (concentration producing 10% of maximal response)” value turned out to be 2.08 ± 1.18 µM; the Hill slope is 1.30±0.07 and 1.30±0.02.
For orientation: LD50 means the dose at which mortality reaches 50%. One may read the logP as a log measure of how a compound divides between an organic and an aqueous phase. The term EC50 denotes the concentration that produces a half-maximal response. As usually defined, the Emax is the size of the effect at its maximum, as opposed to the concentration needed. For `CCC(C)[C@H]1O[C@]2(CC[C@@H]1C)C[C@@H]1C[C@@H](C/C=C(\C)[C@@H](O[C@H]3C[C@H](OC)[C@@H](O[C@H]4C[C@H](OC)[C@@H](O)[C@H](C)O4)[C@H](C)O3)[C@@H](C)/C=C/C=C3\CO[C@@H]4[C@H](O)C(C)=CC(C(=O)O1)[C@]34O)O2` (some centres unmarked) [Ivermectin], the Signs of neurotoxicosis result in series [2] was “severe signs of neurotoxicosis”. For the same molecule, the LD50 at 14 days in [3] is 0.4 mg/kg and 0.46 µmol/kg. In addition, in series [4], the logP was 4.8. In addition, the EC50 in series [1] was found to be 33.8 ± 7.7 nM. In addition, the “Maximum potentiation of the GABA(A) receptor by IVM compared with MOX” value in series [1] (co-application with 2 µM GABA) is on record as about 2 fold. In addition, the “Concentration to reach Emax” value in series [1] (setting [10]) turned out to be 0.49 µM. Moreover, the Hill slope is 1.52±0.45 in [1] (setting [10]) and 1.52 in series [1] (potentiation of current evoked by 2 µM GABA (EC10), listed as IVM). Also, the Emax in series [1] (read-out: Emax (maximum potentiation relative to GABA alone)) is 414 ± 66.1%. Moreover, the figures for the “Concentration required to potentiate the receptors” value in series [5] and in series [7] were 30 µM and 3 µM, respectively. For the same molecule, the Behaviour of mice result in series [6] (0.11 µmol/kg SC) was “no changes in the behaviour of mice were observed”. For the same molecule, the Neurological symptoms observed result in series [6] (0.11 µmol/kg SC, 1 h post-treatment (ditto marks to 14 d)) is “Visually normal”; in series [6] (0.40 µmol/kg SC, 1 h post-treatment (ditto marks to 5 h)), “Visually normal”; in series [6] (0.40 µmol/kg SC, 6 h post-treatment) it was “Lethargy”; in series [6] (0.40 µmol/kg SC, 7 h post-treatment, these mice euthanized), 2/5 Ataxia ^c/tremor ^d ^†; in [6] (0.40 µmol/kg SC, 12 h post-treatment) it was 3/5 Sleepiness; in series [6] (0.40 µmol/kg SC, 1 d post-treatment (ditto marks to 14 d)), “Visually normal”. Also, the Neurological symptoms observed entry is recorded as “Rapid breathing” in series [6] (0.69 µmol/kg SC, 2 h post-treatment); “Ataxia ^c” in series [6] (0.69 µmol/kg SC, 5 h post-treatment); “Lethargy ^†” in [6] (0.69 µmol/kg SC, 6 h post-treatment, mice euthanized). Besides, the Neurological signs result in [6] (6 h post-administration) was “severe neurotoxic signs”; in [6] (just after administration) it was “hyperactivity”. Further, the “Start of neurotoxic signs (lethargy, tremors and/or ataxia)” value in [6] (dose rates close to the respective LD50 (0.46 IVM, 2.3 MOX µmol/kg)) was determined as 6 h. Further, the LD50 in series [8] is 0.6–0.8 µmol/kg bw; in series [9] it was 27–34 ^b µmol/kg; in series [9] (oral administration, ref 20 (IVM), 21 (MOX)) it was “around 30 mg/kg”.

The values are drawn from article PMC3486876 (PLoS Neglected Tropical Diseases, 2012).
